For orientation: IC50 means the midpoint of a concentration-inhibition curve.

The values below come from patent publication US11098061B2 (Celgene CAR LLC, priority 2013, dated 2021).

Experiment [1] deals with p38a activated, mitogen-activated protein kinase-activated protein kinase 2 (MAPKAP-K2 or MK-2) enzyme (Homo sapiens (Human), UniProt P49137). Nature of the experiment: MK2 Omnia continuous-read kinase assay for compound potency. Format: biochemical. To be noted: [MK-2]=0.4 nM, [ATP]=1.0 mM, [ST3-Sox]=10 μM. The method, boiled down:
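Continuous Omnia fluorescence read (λex360/λem485) every 71 s after starting with 0.4 nM MK-2, with 1.0 mM ATP (appKM 8-10 μM) and 10 μM ST3-Sox substrate.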

For experiment [2], the target named is T1, MK2 (Homo sapiens (Human), UniProt P49137). In words: MK2 cellular assay (Hsp27 phosphorylation in Thp-1 cells). As to conditions: differentiated Thp-1 cells, compound 1 hour, 50 ng/ml LPS 15 minutes, phosphorylation of Hsp27; read-out: MK2EC50. In kind it is cell-based. The method, boiled down: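 PMA-differentiated (10 ng/ml, 2 days) human Thp-1 monocytic cells given compound for 1 h, washed, then stimulated with 50 ng/ml LPS for 15 min. Hsp27 phosphorylation measured by western blot of lysates (20 μg protein); EC50 from dose-response inhibition.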
T1 sequence (P49137 whole entry): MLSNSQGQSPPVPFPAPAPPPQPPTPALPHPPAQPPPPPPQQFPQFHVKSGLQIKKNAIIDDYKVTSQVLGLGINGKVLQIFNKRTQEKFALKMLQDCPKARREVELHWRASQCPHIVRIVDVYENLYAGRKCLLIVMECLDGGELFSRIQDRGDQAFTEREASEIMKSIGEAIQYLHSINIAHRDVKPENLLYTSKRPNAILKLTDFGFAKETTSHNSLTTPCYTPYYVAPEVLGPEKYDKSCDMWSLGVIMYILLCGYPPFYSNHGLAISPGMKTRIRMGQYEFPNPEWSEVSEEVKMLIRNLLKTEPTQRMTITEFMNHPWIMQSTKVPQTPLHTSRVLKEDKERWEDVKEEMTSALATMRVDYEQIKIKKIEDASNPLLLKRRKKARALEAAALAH

The target in experiment [3] is T1, MK2. In words: MK2 modification assessment by whole protein mass spectrometry. In kind it is binding. To be noted: intact MK2, 60 min, 10-fold excess of compound to protein. The method, boiled down: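 MK2 treated with compound is analysed intact by MALDI-TOF after C4 cleanup in sinapinic acid matrix. Percent modification is the centroid mass shift against control MK2 divided by compound mass.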

For the next experiment, the system named is TNFα release. In words: PO mouse PD experiment (TNFα release after LPS). Format: in vivo. As to conditions: CD-1 male mice, 30 mg/kg PO, 1 hour prior to LPS, read-out: % Inhibition of TNFa. As for the experimental part: CD-1 male mice, approximately 5 weeks old were acquired from Charles River Laboratories. Animals were housed in ventilated cages with a 12/12 light cycle and provided rodent chow and water ad libitum. Mice were acclimated at least 1 week prior to study initiation (approximately 6 weeks old). Five (5) mice per group were predosed at 30 mg/kg PO with one of the following compounds: III-8, III-35, II-27, III-47, III-56, V-39, II-27, III-37, II-e-1, II-e-3, III-40, and V-58 (by oral gavage as a suspension in 0.5% methyl cellulose/0.25% Tween 80 in deionized water), 1 hour prior to LPS administration. LPS (E.Coli 055:B5 from Sigma, Cat #L2880) was diluted in 0.9% sterile saline (Webster Veterinary Supply, Cat #07-883-6734) to a final concentration of 30 μg/mL. Animals were administered 15 μg in 0.5 mL/mouse (approximately 0.5 mg/kg LPS) intraperitoneally. One hour post LPS administration, the mice were sacrificed via CO2 and whole blood was collected by cardiac puncture. Blood was placed in EDTA K2 tubes (Braintree Scientific, Cat #MT-1395), inverted 3 times and placed on wet ice until centrifugation at 4° C. Plasma was collected and stored on dry ice until stored at −80° C. until processing. TNFα levels were quantified using the “Mouse TNF-alpha Ultra-Sensitive Kit” from mesoscale.com (catalog number K152BHC-2) in conjunction with an MSD plate reader.

Chain of p38a activated, mitogen-activated protein kinase-activated protein kinase 2 (MAPKAP-K2 or MK-2) enzyme (P49137 whole entry): as above

Regarding `C=CC(=O)Nc1cccc2oc(-c3ccc4cc5n(c4c3)C3(CCC3)CNC5=O)nc12` [Compound V-39, N-(2-(1′-oxo-2′,3′-dihydro-1′H-spiro[cyclobutane-1,4′-pyrazino [1,2-a]indol]-7′-yl)benzo[d]oxazol-4-yl)acrylamide], the IC50 in experiment [1] fell in the range of 0.101 to 0.5 µM. The EC50 on MK2 [2] fell in the range of 0.101 to 0.5 µM. For the same compound, the “MK2 Mass Mod” value at MK2 [3] is “E (mass modification of ≥70%)”. Besides, the inhibition in vivo at 30 mg/kg with TNFα release was at least 81%.
Turning to `C=CC(=O)N1c2cc(NC(=O)c3ccc4cc5n(c4c3)C3(CCC3)CNC5=O)ccc2OCC1(C)C` [Compound V-58, N-(4-acryloyl-3,3-dimethyl-3,4-dihydro-2H-benzo[b][1,4]oxazin-6-yl)-1′-oxo-2′,3′-dihydro-1′H-spiro[cyclobutane-1,4′-pyrazino [1,2-a]indole]-7′-carboxamide], in experiment [1], the IC50 is under 0.1 µM. Further, the EC50 on MK2 [2] is under 0.1 µM. Moreover, the “MK2 Mass Mod” value at MK2 [3] was “E (mass modification of ≥70%)”. In the experiment on TNFα release, the inhibition in vivo at 30 mg/kg was at most 20%.
Regarding `C=CC(=O)Nc1cccc(-c2cc3c(ccc4c5c([nH]c43)CCC5=O)cn2)c1` [II-e-1, N-(3-(7-oxo-7,8,9,10-tetrahydrocyclopenta[4,5]pyrrolo[2,3-f]isoquinolin-2-yl)phenyl)acrylamide], the IC50 in experiment [1] was in the range of 0.101 to 0.5 µM. Also, the EC50 at MK2 [2] was in the range of 0.501 to 0.999 µM. The “MK2 Mass Mod” value at MK2 [3] is listed as “E (mass modification of ≥70%)”. For the same compound, in the experiment with TNFα release, the inhibition in vivo at 30 mg/kg is at most 20%.
For the compound `C=CC(=O)Nc1cc(-c2cc3c(ccc4c5c([nH]c43)CCC5=O)cn2)ccc1F` [II-e-3, N-(2-fluoro-5-(7-oxo-7,8,9,1-tetrahydrocyclopenta[4,5]pyrrolo[2,3-f]isoquinolin-2-yl)phenyl)acrylamide], the inhibition in vivo at 30 mg/kg in the experiment with TNFα release was at most 20%.
Take `C=CC(=O)Nc1cc(NC(=O)c2ccc3sc4c(c3c2)NC[C@@H](C)NC4=O)ccc1OCCN(C)C` [III-35, (R)—N-(3-acrylamido-4-(2-(dimethylamino)ethoxy)phenyl)-3-methyl-5-oxo-2,3,4,5-tetrahydro-1H-benzo[4,5]thieno[3,2-e][1,4]diazepine-9-carboxamide]: in experiment [1], the half-maximal inhibitory concentration (IC50) is under 0.1 µM. Moreover, the EC50 at MK2 [2] was in the range of 0.101 to 0.5 µM. Further, the “MK2 Mass Mod” value on MK2 [3] is on record as “E (mass modification of ≥70%)”. For the same compound, in the experiment with TNFα release, the inhibition in vivo at 30 mg/kg was at most 20%.
On the same counts, the results for `C=CC(=O)Nc1cc(-c2ccc3c(ccc4sc5c(c43)NC[C@@H](C)NC5=O)n2)ccc1C` [III-37, (R)—N-(2-methyl-5-(10-methyl-8-oxo-9,10,11,12-tetrahydro-8H-[1,4]diazepino[5′,6′:4,5]thieno[3,2-f]quinolin-3-yl)phenyl)acrylamide] are under 0.1 µM, under 0.1 µM, “E (mass modification of ≥70%)” and at most 20%.
The like results for `C=CC(=O)NC1CCCC1NC(=O)c1ccc2sc3c(c2c1)NC[C@@H](C)NC3=O` (some centres unmarked) [III-47] were, in that order, under 0.1 µM, under 0.1 µM, “E (mass modification of ≥70%)” and at most 20%.
With `C=CC(=O)N1C[C@H](C)Oc2ccc(NC(=O)c3ccc4sc5c(c4c3)NC[C@@H](C)NC5=O)cc21` [III-53, (R)—N—((S)-4-acryloyl-2-methyl-3,4-dihydro-2H-benzo[b][1,4]oxazin-6-yl)-3-methyl-5-oxo-2,3,4,5-tetrahydro-1H-benzo[4,5]thieno[3,2-e][1,4]diazepine-9-carboxamide], the IC50 in experiment [1] is under 0.1 µM. Also, at MK2 [2], the EC50 was over 1 µM. Further, the “MK2 Mass Mod” value on MK2 [3] is given as “E (mass modification of ≥70%)”.
The like results for `C=CC(=O)Nc1cc(-c2ccc3c(ccc4sc5c(c43)NC[C@@H](C)NC5=O)n2)ccc1Cl` [III-54, (R)—N-(2-chloro-5-(10-methyl-8-oxo-9,10,11,12-tetrahydro-8H-[1,4]diazepino[5′,6′:4,5]thieno[3,2-f]quinolin-3-yl)phenyl)acrylamide] were, in that order, under 0.1 µM, 0.101 to 0.5 µM and “E (mass modification of ≥70%)”.
Turning to `C=CC(=O)Nc1cc(NC(=O)c2ccc3sc4c(c3c2)NC[C@@H](C)NC4=O)ccc1C1CCN(C)CC1` [III-56, (R)—N-(3-acrylamido-4-(1-methylpiperidin-4-yl)phenyl)-3-methyl-5-oxo-2,3,4,5-tetrahydro-1H-benzo[4,5]thieno[3,2-e][1,4]diazepine-9-carboxamide], the inhibition in vivo at 30 mg/kg in the experiment on TNFα release was at most 20%.
Regarding `C=CC(=O)Nc1cc(-c2ccc3c(ccc4sc5c(c43)NC[C@@H](C)NC5=O)n2)ccc1C1CCN(C)CC1` [III-58, (R)—N-(5-(10-methyl-8-oxo-9,10,11,12-tetrahydro-8H-[1,4]diazepino[5′,6′:4,5]thieno[3,2-f]quinolin-3-yl)-2-(1-methylpiperidin-4-yl)phenyl)acrylamide], the IC50 in experiment [1] is under 0.1 µM. In addition, the EC50 at MK2 [2] lay in the range of 0.101 to 0.5 µM. Also, the “MK2 Mass Mod” value on MK2 [3] was “E (mass modification of ≥70%)”.
The like results for `C=CC(=O)Nc1cc(OCC)ccc1Nc1c(C)c(NC2CCCNC2)nc2ccnn12` (centres unmarked) [IV-2, N-(5-ethoxy-2-((6-methyl-5-(piperidin-3-ylamino)pyrazolo [1,5-a]pyrimidin-7-yl)amino)phenyl)acrylamide] were, in that order, 0.101 to 0.5 µM, over 1 µM and “E (mass modification of ≥70%)”.
On the same counts, the results for `C=CC(=O)Nc1cc(-c2nccc(-c3cc4n(c3)CCNC4=O)n2)ccc1OC` [V-c-2, N-(2-methoxy-5-(4-(1-oxo-1,2,3,4-tetrahydropyrrolo[1,2-a]pyrazin-7-yl)pyrimidin-2-yl)phenyl)acrylamide] are under 0.1 µM, over 1 µM and “E (mass modification of ≥70%)”.
Turning to `C=CC(=O)N1CCOc2ccc(-c3nccc(-c4cc5n(c4)CCNC5=O)n3)cc21` [V-c-3, 7-(2-(4-acryloyl-3,4-dihydro-2H-benzo[b][1,4]oxazin-6-yl)pyrimidin-4-yl)-3,4-dihydropyrrolo[1,2-a]pyrazin-1(2H)-one], in experiment [1], the IC50 was under 0.1 µM. Also, the EC50 on MK2 [2] was over 1 µM. Moreover, on MK2 [3], the “MK2 Mass Mod” value was “E (mass modification of ≥70%)”.
